Experimental findings from patent publication US20250368638A1, “BICYCLIC INHIBITORS OF NICOTINAMIDE […], COMPOSITIONS AND USES THEREOF” (President and Fellows of Harvard College, priority 2021, published 2025) are described below.

“And” between values parts separate entries of the source, which are not always exact repeats. Equal values may be shown once. Bounds are passed on as bounds.

The nature of data set [1]: Permeability assay in Caco-2 cells. Particulars: human; for Papp A→B at 2 h, 5 μM / Papp B→A at 2 h, 5 μM / efflux ratio at 2 h, 5 μM: Caco-2, pH 7.4; for recovery at 2 h, 5 µM: Caco-2. How it is done:
Preparation of Caco-2 Cells: 50 μL and 25 mL of cell culture medium were added to each well of the Transwell insert and reservoir, respectively. And then the HTS transwell plates were incubated at 37° C., 5% CO2 for 1 hour before cell seeding. […] Cell culture medium was replaced every other day, beginning no later than 24 hours after initial plating.
Preparation of Stock Solutions: The stock solutions of control and test compounds were prepared in DMSO at the concentration of 10 mM. Digoxin, Prazosin and propranolol were used as control compounds in this assay.
Assay Procedures: The Caco-2 plate was removed from the incubator and washed twice with pre-warmed HBSS (10 mM HEPES, pH 7.4), and then incubated at 37° C. for 30 minutes. The stock solutions of controls and Test compounds were diluted in DMSO to get 1 mM solutions and then diluted with HBSS (10 mM HEPES, pH 7.4) to get 5 μM working solutions. The final concentration of DMSO in the incubation system was 0.5%. To determine the rate of drug transport in the apical to basolateral direction. Add 125 μL of the test compounds to the Transwell insert (apical compartment), and transfer 50 μL sample (DO sample) immediately from the apical compartment to a new 96-well plate. Fill the wells in the receiver plate (basolateral compartment) with 235 μL of HBSS (10 mM HEPES, pH 7.4). To determine the rate of drug transport in the basolateral to apical direction. Add 285 μL of the test compounds to the receiver plate wells (basolateral compartment), and transfer 50 μL sample (DO sample) immediately from the basolateral compartment to a new 96-well plate. Fill the Transwell insert (apical compartment) with 75 μL of HBSS (10 mM HEPES, pH 7.4). Time 0 samples were prepared by transferring 50 μL of 5 μM working solution to wells of the 96-deepwell plate, followed by the addition of 200 μL cold acetonitrile containing appropriate internal standards (100 nM alprazolam, 200 nM labetalol, 200 nM caffeine and 200 nM diclofenac). The plates were incubated at 37° C. for 2 hours. […] Samples were vortexed for 5 minutes and then centrifuged at 3,220 g for 40 minutes. An aliquot of 100 μL of the supernatant was mixed with 100 μL of ultra-pure water to use for LC-MS/MS analysis. To determine the Lucifer Yellow leakage after 2 hour transport period, stock solution of Lucifer yellow was prepared in water and diluted with HBSS (10 mM HEPES, pH 7.4) to reach the final concentration of 100 μM. 100 μL of the Lucifer yellow solution was added to each Transwell insert (apical compartment), followed by filling the wells in the receiver plate (basolateral compartment) with 300 μL of HBSS (10 mM HEPES, pH 7.4). The plates were incubated at 37° C. for 30 minutes. 80 μL samples were removed directly from the apical and basolateral wells (using the basolateral access holes) and transferred to wells of new 96 wells plates.
Background: Caco-2 cells form a polarised layer with tight junctions and transporters.

The next data set deals with T1, recombinant human NNMT (Homo sapiens, UniProt P40261).
T1 sequence (P40261 1-264): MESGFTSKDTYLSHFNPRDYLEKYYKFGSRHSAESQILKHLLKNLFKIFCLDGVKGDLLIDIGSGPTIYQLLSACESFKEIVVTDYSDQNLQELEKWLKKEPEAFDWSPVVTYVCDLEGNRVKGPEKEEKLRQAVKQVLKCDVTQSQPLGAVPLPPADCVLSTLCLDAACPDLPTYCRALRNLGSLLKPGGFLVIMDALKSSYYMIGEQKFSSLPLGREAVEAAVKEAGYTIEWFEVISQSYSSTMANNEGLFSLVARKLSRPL
Briefly: in vitro NNMT enzyme inhibition assay (Promega MTase-Glo Methyltransferase Assay). It is filed as biochemical. Particulars: 40 nM recombinant human NNMT, 8 μM nicotinamide, 6.7 μM SAM, 20 minutes. As for the experimental part:
NNMT biochemical activity for was evaluated using the Promega Mtase-Glo Methyltransferase Assay kit. Assays were performed in a white, flat-bottomed 96 well plate. […] Reactions were performed for 20 minutes at room temperature. MTase-Glo reagent and MTase-Glo detection solution were added according to manufacturer's instructions and luminescence signal measured with a SpectraMax i3 plate reader and data analyzed with GraphPad Prism version 9. Scheme 16 depicts a visual summary of the Promega MTase-Glo Methyltransferase assay used to assess biochemical activity of novel inhibitors.

Another data set has as its system K562 (ATCC) cells. Kind of data set: Cellular potency: 1-MNA levels in K562 cells after compound incubation. The class given is cell-based. Particulars: Homo sapiens, 24 h incubation. How it is done:
Cellular potency was measured in K562 (ATCC) cells via measuring (1-methyl nicotinamide) 1-MNA levels after compound incubation at varying concentrations overnight. Cells were plated at 1 million per well and were incubated for 24 h with compounds at indicated concentrations. Cells were collected by pipetting and extracted with 200 ul acetonitrile containing internal deuterated standard 10 ng/ml d4-1-MNA. Samples were analyzed on an Agilent 64-60 Triple Quad LC/MS with Agilent 1290 Infinity HPLC using a Restek Allure 5 um PPFP column 150 mm×2.1. The mobile phase A was 2.5 mM ammonium formate in water, and mobile phase B was methanol with 0.1% formic acid, delivered at 0.25 mL/min. The capillary voltage was set to 2400V and the nozzle at 300V. The drying gas temperature was 240° C., the drying gas flow rate was 4 L/min, and the nebulizer pressure was 40 psi. The mass spectrometer was run in multiple reaction monitoring mode. Mass transitions were m/z 137.1 à 94.1 for 1-MNA and m/z 141.1 à 98.1 for d4-MNA.

Another data set in a line: FIG. 20. From the text:
Table printed on a drawing sheet, FIG. 20
The patent's description of the figure: FIG. 20 is a table summarizing mean PK parameters of various compound 11 samples after different PO dosages in female C57B16/N mice.
First reader's note: The asterisks on two AUC values are not explained on the sheet; the first grid row holds only the heading 'PK Parameter'.

A short description of a further data set: FIG. 19. How it is done: Table printed on a drawing sheet, FIG. 19
Footnotes: %Q: The percent of compound remaining after 60 minutes of exposure to liver microsomes
The patent's description of the figure: FIG. 19 is a table summarizing PK/PD data for compounds 1 to 3 and 11.
First reader's note: The CL value of Compound 11 (36.1) is boxed on the sheet.

Where [2] appears, read: Caco-2, pH 7.4, Recovery (%) AP-BL.
Setting [3] is: Caco-2, pH 7.4, Recovery (%) BL-AP.

What is called Papp A→B is the apparent permeability from the apical to the basolateral side of a cell layer. Read a high Papp A→B as fast passage. What is called Papp B→A is how fast a substance crosses the layer from the basolateral side. Usually efflux ratio stands for a quotient of directional permeabilities that is used to spot active efflux. In the case of `CC(C)NCC(O)COc1cccc2ccccc12` (stereo not shown) [Propranolol], in data set [1], the Papp A→B at 2 h, 5 μM amounted to 26.9 ×10⁻⁶ cm/s; the Papp B→A at 2 h, 5 μM was 16.6 ×10⁻⁶ cm/s; the efflux ratio at 2 h, 5 μM was determined as 0.62. The recovery at 2 h, 5 µM in data set [1] (setting [2]) came to 80%. The recovery at 2 h, 5 µM in data set [1] (setting [3]) is 88.5%.
What is called IC50 is the concentration needed to halve the response being measured. `Cc1c(C(N)=O)cnc2c1CC(C)N2` (stereo not shown) [Compound 18]: the IC50 at recombinant human NNMT was 848 nM.
As for `C[C@H]1Nc2ncc(C(N)=O)cc2[C@@H]1C` [Compound 26A], the IC50 in the data set with K562 (ATCC) cells was found to be 114 nM; on recombinant human NNMT, 20 nM.
Take `COc1cc2nc(N3CCN(C(=O)c4ccco4)CC3)nc(N)c2cc1OC` [Prazosin]: in data set [1], the Papp A→B at 2 h, 5 μM is 9.44 ×10⁻⁶ cm/s; the Papp B→A at 2 h, 5 μM came to 28.9 ×10⁻⁶ cm/s; the efflux ratio at 2 h, 5 μM stood at 3.06. This compound yielded a recovery at 2 h, 5 µM in data set [1] (setting [2]) of 77%. Besides, in data set [1] (setting [3]), the recovery at 2 h, 5 µM was 90.4%.
In general, Tmax refers to the time at which the peak concentration occurs. In the case of `C[C@@H]1Cc2cc(C(N)=O)cnc2N1` [compound 11], in “FIG. 20”, the “AUClast (h*ng/mL)” value is on record as 54,351 h*ng/mL; the “F(%)” value was greater than 100%; the “T1/2” value was 41.6 min and 50.5 min and 42.5 min; the “Tmax” value is 20 min and 34.8 min.
As to `Cc1c(C(N)=O)cnc2c1C[C@@H](C)N2` [Compound 19A], the IC50 with K562 (ATCC) cells was 12 nM; at recombinant human NNMT, 28 nM and 28 to 43 nM.
Consider `C[C@H]1O[C@@H](O[C@H]2[C@@H](O)C[C@H](O[C@H]3[C@@H](O)C[C@H](O[C@H]4CC[C@@]5(C)[C@H](CC[C@@H]6[C@@H]5C[C@@H](O)[C@]5(C)[C@@H](C7=CC(=O)OC7)CC[C@]65O)C4)O[C@@H]3C)O[C@@H]2C)C[C@H](O)[C@@H]1O` [Digoxin], for which, in data set [1], the Papp A→B at 2 h, 5 μM is 0.67 ×10⁻⁶ cm/s; the basolateral-to-apical permeability (Papp B→A) at 2 h, 5 μM was determined as 19 ×10⁻⁶ cm/s; the efflux ratio at 2 h, 5 μM stood at 28.2. In data set [1] (setting [2]), the recovery at 2 h, 5 µM amounted to 79.1%. The recovery at 2 h, 5 µM in data set [1] (setting [3]) was determined as 94.5%.
As a reminder, the Vss is a proportionality between amount in the body and measured concentration, not a real space. Read a high Vss as wide distribution into tissue. Turning to `NC(=O)c1cnc2c(c1)CCN2` [Compound 1], in the data set “FIG. 19”, the “%Q (Human)” value worked out at 101.05%, the “%Q (Mouse)” value is recorded as 88.98%, the “AUClast” value is 255 ng·h/mL and the “CL” value is reported as 64.2 mL/min/kg. Also, in “FIG. 19”, the “T1/2” value was determined as 10.9 min and the “Vss” value came to 0.904 L/kg. In addition, the 50% inhibitory concentration (IC50) at recombinant human NNMT is 105 nM.
